Results reported in patent US20010001101A1, “Phenanthroline derivatives” (Zeneca Limited, priority 1997, published 2001).

How the values were obtained:
[1] = test system: granulation tissue in wound chamber; assay: in vivo wound chamber model; parameters: species or system rat; settings: injected into chamber daily, day 7-14 treatment; for response vs control in vivo at 0.01 mg / response vs control in vivo at 0.05 mg: Rattus norvegicus, read-out: Mean Collagen content (% of Control) On Day 14
Description: (e) An in vivo wound chamber model involving the measurement of histological changes in granulation tissue. The test compounds were tested in rats according to the procedures generally described in Schilling et al., Surgery 46(4):702-710 (1959), Hunt et al., Am. J. Surgery 114:302-307 (1967), and Grotendorst et al., J. Clin Inves. 76:2323-2329 (1985). More specifically, stainless wire mesh cylinders were implanted subcutaneously under the back skin of rats (two chambers per animal). The compounds of the present invention were then dissolved in DMSO and injected into each chamber on a daily basis at various concentrations from either day 0-14 or day 7-14. On day 14, the chambers were collected and the granulation tissues contained within the chambers were collected for biochemical (collagen content) or histological evaluation.
Following the in vivo wound chamber model described above, fourteen of the claimed compounds tested to determine the effectiveness of the claimed compounds in inhibiting collagen deposition in the wound chamber.

dermal punch wound = assay: dermal wound healing, rat punch model; format: in vivo; settings: compared to control
Description: FIG. 5 illustrates wound area after treatment of Compound 3 in the dermal punch model.
(§1) The effectiveness of the compounds in dermal wound healing was tested using two wound healing models—rat punch model and rat incisional model—as described above.

dermal incisional wound = assay: dermal wound healing, rat incisional model; format: in vivo; settings: compared to control
Description: FIG. 6 illustrates the tensile strength on dermal incisional wound on day 7 after oral treatment of Compound 3 and Compound 12.
FIG. 7 illustrates the tensile strength of incisional wound after local injections of Compound 12.
as §1

melting point [°C] | Compound | response vs control in vivo at 0.01 mg ([1]; 10 μg dosage) [%] | response vs control in vivo at 0.05 mg ([1]; 50 μg dosage) [%] | other results
– | O=C(OCCN1CCOCC1)C1C=Nc2c(ccc3cccnc23)C1=O (centres unmarked) [Compound 13, 3-(2-{morpholino}ethoxycarbonyl)-4-oxo-3,4-dihydro-1,10-phenanthroline] | 95.5 | 84.3 | –
– | O=C(O)C1C=Nc2c(cc(Cl)c3cccnc23)C1=O (centres unmarked) [Compound 9, 3-carboxy-6-chloro-4-oxo-3,4-dihydro-1,10-phenanthroline] | 80.3 | 79.9 | –
267 to 269 | CN(Cc1ccccc1)C(=O)c1cnc2c3c(c(F)cc2c1)C(=O)C(C#N)C=N3 (centres unmarked) [Example IX, 8-(N-benzyl-N-methylcarbamoyl)-3-cyano-5-fluoro-4-oxo-3,4-dihydro-1,10-phenanthroline] | – | – | –
– | N#CC1C=Nc2c(ccc3cccnc23)C1=O (centres unmarked) [Compound 1, 3-cyano-4-oxo-3,4-dihydro-1,10-phenanthroline] | 110 | 112 | –
288 to 290 | CCOC(=O)c1cnc2c3c(ccc2c1Cl)C(=O)C(C(C)=O)C=N3 (centres unmarked) [Example X, 3-acetyl-7-chloro-8-ethoxycarbonyl-4-oxo-3,4-dihydro-1,10-phenanthroline] | – | – | –
– | O=C(O)C1C=Nc2c(c(Cl)cc3cccnc23)C1=O (centres unmarked) [Compound 2, 5-chloro-3-carboxy-4-oxo-3,4-dihydro-1,10-phenanthroline] | 91.7 | 82.7 | –
272 to 274 | O=C1c2ccc3cccnc3c2N=CC1S(=O)(=O)CC(F)(F)F (centres unmarked) [Example VI, 3-(2,2,2-trifluoroethyl-sulfonyl)-4-oxo-3,4-dihydro-1,10-phenanthroline] | – | – | –
– | O=C(O)C1C=Nc2c(ccc3cc(O)cnc23)C1=O (centres unmarked) [Compound 7, 3-carboxy-8-hydroxy-4-oxo-3,4-dihydro-1,10-phenanthroline] | 81.9 | 74.5 | –
– | CCCN(CC)C(=O)c1cnc2c3c(ccc2c1)C(=O)C([N+](=O)[O-])C=N3 (centres unmarked) [Compound 6, 3-nitro-8-(N-ethyl-N-propylcarbamoyl)-4-oxo-3,4-dihydro-1,10-phenanthroline] | 58.8 | 51.1 | –
171 to 182 | O=C(O)C1C=Nc2c(ccc3cc(C(=O)N4CCc5ccccc5C4)cnc23)C1=O (centres unmarked) [Example XIV, 3-carboxy-4-oxo-8-(1,2,3,4-tetrahydroisoquinolin-2-ylcarbonyl)-3,4-dihydro-1,10-phenanthroline] | – | – | –
294 to 296 | CN(Cc1ccc(F)cc1)C(=O)c1cnc2c3c(ccc2c1)C(=O)C([N+](=O)[O-])C=N3 (centres unmarked) [Example VII, 8-[N-(4-fluorobenzyl)-N-methylcarbamoyl]-3-nitro-4-oxo-3,4-dihydro-1,10-phenanthroline] | – | – | –
– | O=C1c2ccc3cccnc3c2N=CC1S(=O)(=O)C(F)(F)F (centres unmarked) [Compound 11, 3-trifluoromethylsulfonyl-4-oxo-3,4-dihydro-1,10-phenanthroline] | 90.8 | 80.8 | –
169 to 170 | CCOC(=O)C1C=Nc2c(ccc3c(N(C)C)c(C(=O)N(C)Cc4ccccc4)cnc23)C1=O (centres unmarked) [Example XV, 8-(N-benzyl-N-methylcarbamoyl)-7-dimethylamino-3-ethoxy-carbonyl-4-oxo-3,4-dihydro-1,10-phenanthroline] | – | – | –
– | Cc1cc2cc(C(=O)N(C)Cc3ccccc3)cnc2c2c1C(=O)C(C(=O)O)C=N2 (centres unmarked) [Compound 5, 3-carboxy-8-(N-benzyl-N-methylcarbamoyl)-5-methyl-4-oxo-3,4-dihydro-1,10-phenanthroline] | 99.1 | 80.9 | –
164 to 165 | COCCOCCOC(=O)C1C=Nc2c(ccc3cccnc23)C1=O (centres unmarked) [Compound 8, 3-[2-(2-methoxyethoxy)ethoxycarbonyl]-4-oxo-3,4-dihydro-1,10-phenanthroline] | 114 | 92.5 | –
– | CN(Cc1ccc(F)cc1F)C(=O)c1cnc2c3c(ccc2c1)C(=O)C(C(=O)O)C=N3 (centres unmarked) [Compound 3, 3-carboxy-8-(N-methyl-N-{2,4-difluorobenzyl}carbamoyl)-4-oxo-3,4-dihydro-1,10-phenanthroline] | 108 | 79.8 | –
– | CCOC(=O)C1C=Nc2c(c(OC)cc3cccnc23)C1=O (centres unmarked) [Compound 14, 3-ethoxycarbonyl-4-oxo-5-methoxy-3,4-dihydro-1,10-phenanthroline] | 72.2 | 70.3 | healing time (dermal punch wound): increased healing time; tensile strength of wound (dermal incisional wound): reduced tensil strength
– | CN(Cc1ccccc1)C(=O)c1cnc2c3c(ccc2c1)C(=O)C(C#N)C=N3 (centres unmarked) [Compound 4, 3-cyano-8-(N-benzyl-N-methylcarbamoyl)-4-oxo-3,4-dihydro-1,10-phenanthroline] | 81.1 | 66 | –
– | O=C1c2ccc3cc(C(=O)N4CCN(Cc5ccccc5)CC4)cnc3c2N=CC1[N+](=O)[O-] (centres unmarked) [Compound 10, 3-nitro-8-(4-benzylpiperazine-ylcarbonyl)-4-oxo-3,4-dihydro-1,10-phenanthroline] | – | – | Mean Collagen content (% of Control) On Day 14 ([1]; 10 μg dosage): 94.81 % of Control; Mean Collagen content (% of Control) On Day 14 ([1]; 50 μg dosage): 76.54 % of Control
